US20230028918A1, “COMPOSITIONS COMPRISING PKC-BETA INHIBITORS AND PROCESSES FOR THE PREPARATION THEREOF” (priority 2019, published 2023)
≈ marks a conversion by molar mass, not a printed value. Read-outs that look alike come from different tables or passages of the source.

What was measured:
[1] = molecular target: Human PKC delta (Homo sapiens, UniProt Q05655); assay: PKC inhibition, in vitro enzyme assay; format: biochemical
Text: (§1) The methods for these determinations have been described (Grant, et al. 2010, Eur. J. Pharmacol. 627:16-25).

[2] = tested on: pSHP2 (PKCβ cell assay); assay: pSHP2 (PKCβ cell assay); format: cell-based
Text: as §1

[3] = tested on: Interleukin-8 release; assay: Interleukin-8 release; format: cell-based
Text: as §1

[4] = tested on: PKCβ signaling; assay: PKCβ signaling assay: SERBP1 phosphorylation after PMA + ionomycin in whole blood of CLL/SLL patients dosed with Compound A; format: in vivo, human; settings: for inhibition at 100 mg / inhibition at 200 mg / inhibition at 250 mg: Homo sapiens
Protocol: A phosphor-flow assay was employed to measure the phosphorylation of SERBP1, a novel substrate for PKCP. Whole blood samples were taken at the appropriate time points from CLL patients receiving compound A as part of a phase 1 study, and were shipped overnight and processed for testing the next day. Whole blood was stimulated with PMA+ionomycin, cells were permeabilized, and the amount of SERBP1 phophorylation was measured. The reported data are the CD19+pSERBP1+ population, normalized to each patient's own unstimulated sample at the corresponding time point.
To monitor PKCβ mediated signaling, a biomarker marker assay was developed using Alexa-647 label anti-phospho_SERBP1 antibody.
Briefly, whole blood specimens from each patient was drawn into sodium citrate collection tubes. Samples will be shipped overnight to the flow cytometry lab for processing and testing
Duplicates will be prepared for each treatment condition per donor. The following conditions will be prepared for each donor, unstimulated and PMA and ionomycin stimulated samples. Whole blood 200 μL will be placed in appropriate size cryovial. The samples will be treated as described in Table 1 and incubated at 37° C., 5.0% CO2 for 25-30 minutes.
Following stimulation 2 mL 1×BD FACSLyse will be added, then vortexed and incubated for 12-15 minutes in the dark at ART. Samples will be stored immediately at −80° C. until testing.
Samples from each subject will be processed in batches with all timepoints and include a normal human control unstimulated and stimulated sample. All samples will be processed and collected in singlet.
Frozen samples will be thawed by placing samples in a 37° C. water or bead bath. Sample will be transferred to tubes and centrifuged at 1700 rpm, for 5 minutes at ambient room temperature (ART) with Brake on. Samples will be decanted and washed twice with 1 mL Stain Buffer (FBS). Samples will be resuspended in 200 μL Stain Buffer (FBS) and […] appropriate volume of fluorochrome-conjugated monoclonal surface antibodies will be added (Table 2).
Samples will be hand mixed and incubated for 15-20 minutes in the dark at ART. Samples will be washed twice with 1 mL Stain Buffer (FBS). After wash, 200 μL Fix/Perm buffer will be added to each sample, then vortexed and incubated for 30-35 minutes in the dark at 2-8° C. Samples will be washed twice with 1 ml 1× Permeabilization Buffer (Perm Buffer). 100 μL of 1× Perm Buffer and appropriate volume of pSERBP1 AF647 will be added (documented in the study paperwork) and incubated for 30-35 minutes in the dark at 2-8° C. Samples will be washed twice with 1 mL 1× Perm Buffer. Samples will be resuspended in 125 μL 1× Stain Buffer FBS for acquisition on the flow cytometer.
Flow cytometric data acquisition will be performed using the BD FACSCantoII™ which evaluates two scatter parameters and up to eight color fluorescence channels. Data will be acquired using BD FACSDiva™ software (version 6.1.3 or higher). The samples will be acquired to distinguish the cells of interest from other cell types in the peripheral blood by electronic gating on the basis of CD45 versus side scatter. The instrument will be set to collect 50,000 CD45+ lymphocyte events. Dual combination cytograms and/or histograms will be generated to illustrate the LL (−/−), LR (+/−), UL (−/+), UR (+/+) and/or interval gate for the fraction of the cells. The Flow Cytograms will be printed and maintained with study binder.
The Median Fluorescence Intensity for the AF647 channel will be reported for each population (CD45, CD3, CD19 and CD20). Relative % data will also be reported for CD3+, CD3−CD19+, CD3−CD20+, CD3−CD19+HLADR+CD86+, and CD3−CD20+HLADR+CD86+. Data will be analyzed by Microsoft Excel to obtain descriptive statistics; i.e. Mean, SD, and CV %.
The flow cytometry data are analyzed to determine the amount of SERBP1 phosphorylation following PMA/ionomycin stimulation.

[5] = Compound A plasma concentration and food effect in patients; format: in vivo, human; settings: for Compound A Plasma Concentration: Day 8 pre-dose trough (Cmin); for concentration at 3 h post-dose on Day 8: human, plasma, Day 8, 3 h post-dose peak
[6] = Clinical tolerability; format: in vivo; settings: human, plasma, oral; clinical trial, compound taken with food; read-out: Plasma Cmax that is well-tolerated
[7] = tested on: primary CLL cells; assay: Immunoblot of BCR signaling in primary CLL cells; format: cell-based; settings: versus vehicle control
[8] = tested on: primary CLL cells; assay: CCL3 and CCL4 secretion by primary CLL cells (ELISA); format: cell-based; settings: 5 μM, presence or absence of anti-IgM ligation, 24 hrs
[9] = tested on: primary CLL cells with WT and C481S BTK; assay: CD86 and HLA-DR expression on CpG-stimulated primary CLL cells with WT and C481S BTK (flow cytometry); format: cell-based; settings: up to 10 μM, CpG stimulation, 48 hrs, baseline and post-relapse samples from ibrutinib treated patients
Protocol: Cryopreserved baseline samples and post-relapse samples from ibrutinib treated patients (n=2) were thawed and treated with up to 10 μM compound A and stimulated with 3.2 M CpG. CD86 (FIG. 3A) and HLA-DR (FIG. 3B) expression was measured by flow cytometry at 48 hrs. Mean fluorescence intensity (MFI) is reported. Error bars represent standard deviation.

[10] = physchem; settings: pH 7

Sequence of Human PKC delta (Q05655 whole entry): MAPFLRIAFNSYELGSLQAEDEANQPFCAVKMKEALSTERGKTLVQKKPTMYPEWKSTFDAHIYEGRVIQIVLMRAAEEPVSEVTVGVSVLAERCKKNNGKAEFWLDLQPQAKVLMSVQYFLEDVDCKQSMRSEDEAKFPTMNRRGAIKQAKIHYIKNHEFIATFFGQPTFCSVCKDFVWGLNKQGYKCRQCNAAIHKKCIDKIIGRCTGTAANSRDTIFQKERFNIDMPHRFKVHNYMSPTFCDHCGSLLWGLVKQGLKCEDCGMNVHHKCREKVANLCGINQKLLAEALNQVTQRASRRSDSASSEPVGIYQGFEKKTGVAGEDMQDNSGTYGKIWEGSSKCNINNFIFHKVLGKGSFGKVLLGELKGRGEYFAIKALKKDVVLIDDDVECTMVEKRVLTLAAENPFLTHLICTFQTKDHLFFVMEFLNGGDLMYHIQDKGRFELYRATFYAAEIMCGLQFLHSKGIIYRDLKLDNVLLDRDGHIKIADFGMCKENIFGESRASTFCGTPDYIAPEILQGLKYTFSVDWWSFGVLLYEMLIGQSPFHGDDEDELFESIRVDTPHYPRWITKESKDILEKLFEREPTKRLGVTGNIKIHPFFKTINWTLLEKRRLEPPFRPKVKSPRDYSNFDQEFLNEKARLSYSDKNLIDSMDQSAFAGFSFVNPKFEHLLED

With `Cc1ncc(F)c(Nc2n[nH]c3c2CN(C(=O)N2C[C@@H](C)N(CC4CCOCC4)C[C@@H]2C)C3(C)C)n1` [Compound A, 5-{[(2S,5R)-2,5-dimethyl-4-(tetrahydro-2H-pyran-4-ylmethyl)piperazin-1-yl]carbonyl}-N-(5-fluoro-2-methylpyrimidin-4-yl)-6,6-dimethyl-1,4,5,6-tetrahydropyrrolo[3,4-c]pyrazol-3-amine] the “Inhibition of PKC delta” value [1] was “does not significantly inhibit”, the IC50 [2] was 9.8 nM and the IC50 [3] was 39 nM. The “Mean Stimulation at Day 8 3 h Post-Dose Peak” value ([4]; 100 mg BID, N = 1) was 96%, the “Mean Stimulation at Day 8 Pre-Dose Trough (Cmin)” value (“Mean Stimulation … (Cmin)” below) ([4]; 100 mg BID, N = 1) was 109% and the “Mean Stimulation at Day 8 3 h Post-Dose Peak” value ([4]; 200 mg BID, N = 3) was 100%. The “Mean Stimulation … (Cmin)” value ([4]; 200 mg BID, N = 3) was 121%, the “Mean Stimulation at Day 8 3 h Post-Dose Peak” value ([4]; 250 mg BID, N = 3) was 102% and the “Mean Stimulation … (Cmin)” value ([4]; 250 mg BID, N = 3) was 104%. The “Phosphorylation of SERBP1 (CD19+pSERBP1+ population)” value ([4]; CLL patients in phase 1 study, PMA + ionomycin stimulated whole blood) was “inhibits phosphorylation of SERBP1 in vivo”, the inhibition at 100 mg ([4]; 192 h, 100 mg BID, Day 8 pre-dose, read-out: % Inhibition of Stimulation at Trough (Cmin)) was 51% and the inhibition at 200 mg ([4]; 192 h, 200 mg BID, Day 8 pre-dose, read-out: % Inhibition of Stimulation at Trough (Cmin)) was 70%. It also gave an inhibition at 250 mg ([4]; 192 h, 250 mg BID, Day 8 pre-dose, read-out: % Inhibition of Stimulation at Trough (Cmin)) of 97%, an inhibition at 100 mg ([4]; 100 mg BID, Day 8, 3 h post-dose, read-out: % Inhibition of Stimulation at Peak) of 122% and an inhibition at 200 mg ([4]; 200 mg BID, Day 8, 3 h post-dose, read-out: % Inhibition of Stimulation at Peak) of 102%. For the same compound, the inhibition at 250 mg ([4]; 250 mg BID, Day 8, 3 h post-dose, read-out: % Inhibition of Stimulation at Peak) was 98%, the “Plasma concentration that completely suppresses PKCβ signaling” value ([4]; whole blood samples from patients with CLL or SLL) was 500 to 600 ng/mL and the “Compound A Plasma Concentration” value ([5]; 100 mg BID) was 186 ng/mL. The “Compound A Plasma Concentration” value ([5]; 200 mg BID) was 295 ng/mL, the “Compound A Plasma Concentration” value ([5]; 250 mg BID) was 542 ng/mL and the “Effect of food on the PK profile” value ([5]; clinical trial data) was “does not have a significant effect”. The concentration at 3 h post-dose on Day 8 ([5]; 100 mg BID) was 587 ng/mL, the concentration at 3 h post-dose on Day 8 ([5]; 200 mg BID) was 837 ng/mL and the concentration at 3 h post-dose on Day 8 ([5]; 250 mg BID) was 1310 ng/mL. For the same compound, the “Effect of food on the pharmacokinetics” value ([5]; single dose of the IR formulations) was “no significant effect”, the Cmax [6] was ~2000 ng/mL and the “Phosphorylation of PKCβ and downstream targets (pPKCβ, pERK, pIκBα, pGSK3β)” value [7] was “decreased phosphorylation”. For the same compound, the “CCL3 and CCL4 secretion” value [8] was “inhibition of pro-inflammatory cytokine expression”, the “CD86 and HLA-DR expression (MFI)” value [9] was “reduces activation” and the solubility at 24 h [10] was 1040 µg/mL (≈ 2080 µM).
